Reference: patent US9475842B2, “Hexadepsipeptide analogues as anticancer compounds” (PIRAMAL ENTERPRISES LIMITED, priority 2012, dated 2016)

What was measured:
[1] = system: HCT 116 (Colorectal Cancer); experiment: Monolayer assay (CCK-8 cytotoxicity); assay type: cell-based, human; details: Homo sapiens, HCT-116; HCT116, Colon; 24 hrs exposure, CCK-8; read-out: IC50
Procedure: (§1) The assays were designed as in the reference, BMC Cancer, 2010, 10, 610, 1-11; the disclosure of which is incorporated by reference for the teaching of the assay.
(§2) Human tumour cell lines: Panc-1 (Pancreatic Cancer), HCT 116 (Colorectal Cancer), ACHN (Renal Cell Carcinoma), Calu-1 (Lung Carcinoma), MiaPaca2 (Pancreatic Cancer), FADU (Head and Neck Cancer), PC3 (prostate Cancer), G361 (Melanoma), MDA-MB435S (Melanoma), HeLa (Cervical Cancer) were grown in Minimal Essential Media with Eagle's Basal Salts (MEM-EBS) obtained from AMIMED (BioConcept-Switzerland). Tumour cell lines: MDA-MB231 (Breast Cancer), JURKAT (T cell leukaemia), H460 (Small Cell Lung Cancer) were cultured in RPMI 1640 (AMIMED, BioConcept, Switzerland) medium. All tumour cell lines were supplemented with 10% Foetal Bovine Serum (FBS) (GIBCO), 1% Penicillin/Streptomycin (Sigma) and 1% Anti-Anti (GIBCO) and grown in T-175 tissue culture flasks (Nunc). MCF-10A, a non-tumourigenic cell line, was cultured in Mammary Epithelial Basal Medium (MEBM) with all standard additions (Lonza, Catalog. No. CC-3150). All cells were grown in 5% CO2 incubator at 37° C. Cells were passaged at 80-90% confluence. Adherent cells were trypsinised using Trypsin-EDTA (Sigma) and maintained. All cell lines were purchased from ATCC (Rockville, Md., USA).
(§3) Compound of Formula (1a) [described in example 7] was dissolved in DMSO to give a required stock solution of 20 mM. Eight different concentrations of the compound of Formula (1a) were prepared by serial dilution of stock solution finally resulting in a (compared to the test concentration) 200-fold higher concentration. Compound of Formula (1a) was tested at the concentration of 0.0001 μM, 0.001 μM, 0.01 μM, 0.03 μM, 0.1 μM, 0.3 μM, 1 μM and 3 μM respectively. Each concentration was evaluated in triplicate.
(§4) Method for determination of IC50 of the compound of Formula (1a): • a) Different cancer/normal cells were seeded at a density of 3000 cells/200 μL well, in a tissue culture grade 96 well plate and allowed them to recover for 24 hrs in a humidified 5±0.2% CO2 incubator at 37±0.5° C. • b) After 24 hrs, 1 μL of 200× (200 times higher than required concentration is denoted as 200×) compound of Formula (1a), dissolved in DMSO, was added to the above tissue culture plate seeded with cancer/normal cells. The final concentration of DMSO was 0.5% in wells. DMSO was used as a vehicle control. • c) After 24 hrs the plate was removed from CO2 incubator and 5 μL of CCK-8 (Dojindo Molecular Technologies, Inc. USA, catalog, no. CK04-20) per well was added. • d) The plate was then placed at 37° C. for 2 hrs. • e) The absorbance was recorded at 450 nm. • f) The percent cytotoxicity was calculated using the following formula
(§5) The IC50 value was estimated by visual inspection of the concentration-effect curve. For calculation of mean IC50 values over the fourteen cell lines as tested, the geometric mean was selected.
(§6) The assays were designed as described above in example 16.
(§7) The IC50 value was estimated by visual inspection of the concentration-effect curve. For calculation of mean IC50 values over the six cell lines (PC3, MDA MB, HCT116, MCF7, MIAPaCa2, MCF10A) as tested, the geometric mean was selected.

PC3 (prostate Cancer) = experiment: Monolayer assay (CCK-8 cytotoxicity); assay type: cell-based, human; details: Homo sapiens; PC3, Prostate; 24 hrs exposure, CCK-8; read-out: IC50
Procedure: as §1, §2, §3, §4, §5, §6, §7

[2] = system: MDA-MB231 (Breast Cancer); experiment: Monolayer assay (CCK-8 cytotoxicity); assay type: cell-based, human; details: Homo sapiens, MDA-MB-231; MDAMB231, Breast; 24 hrs exposure, CCK-8; read-out: IC50
Procedure: as §1, §2, §3, §4, §5, §6, §7

[3] = system: cleaved caspase 9 in HeLa cells; experiment: Protein expression by high content screening (Cellomics); assay type: cell-based, human; details: for Fold activation with respect to control cells, Cleaved Caspase 9: HeLa cells, after 3 hours
Procedure: (§8) Protein expressions of cyclin D, nuclear factor-kappa B (p65) [NFkB (p65)], ribosomal protein S6 (pS6), tumor protein 53 (p53), protein c-jun N-terminal kinase (pJNK), cleaved caspase 9, cleaved caspase 3 and cleaved poly(ADP-ribose) polymerase (PARP) was carried out in HeLa cells [referred to in step 1 of example 16] by Cellomics high content imaging. These primary antibodies were purchased from Santacruz Biotechnology, USA. Briefly 1×10^4 cells were seeded in 96 well tissue culture grade black plate with transparent bottom (Nunc, USA), and allowed to adhere for 24 h, and then replaced with fresh media, and cells were treated with 0.01 μM, 0.003 μM and 0.0003 μM concentrations of compound of Formula (1) [referred to in step 2 of example 16] and incubated for 1 h and 3 h respectively. After respective time point, cells were fixed with 3.7% formaldehyde (Sigma St. Louis, Mo.) for 10 minutes at RT, followed by permeabilization with 0.15% Triton X-100 (Sigma St. Louis, Mo.) for 10 minutes. Then the cells were blocked with 5% Bovine Serum Albumin for 2 hours. After blocking step, specific primary antibodies were added for 1 h, and primary antibodies of different protein were localized by secondary antibody labeled with Dylight548 (red) (Thermofisher, USA). Following secondary incubation, the nucleus was stained with Hoechst 3342 (blue) (Sigma, USA). Immunofluorescence was determined by scanning the plates on Cellomics Array Scan® VTI HCS Reader (Thermo-Fisher Scientific Inc., Waltham, Mass.). All the data points were analyzed using the Compartmental Analysis bio-algorithm of Cellomics and quantitative data were expressed as % activation in comparison to the untreated cells. 1000 cells were counted for each replicate well and the results were presented as an average±S.E.

[4] = system: cleaved caspase 3 in HeLa cells; experiment: as above; assay type: cell-based, human; details: for Fold activation with respect to control cells, Cleaved Caspase 3: HeLa cells, after 3 hours
Procedure: as §8

[5] = system: cleaved poly(ADP-ribose) polymerase (PARP) in HeLa cells; experiment: as above; assay type: cell-based, human; details: for Fold activation with respect to control cells, Cleaved PARP: HeLa cells, after 3 hours
Procedure: as §8

[6] = system: MCF-10A, a non-tumourigenic cell line; experiment: Monolayer assay (CCK-8 cytotoxicity), normal cells; assay type: cell-based; details: MCF10A, Normal Breast Epithelium, 24 hrs exposure, CCK-8
Procedure: as §1, §2, §3, §4, §5, §6, §7

[7] = system: MiaPaca2 (Pancreatic Cancer); experiment: Monolayer assay (CCK-8 cytotoxicity); assay type: cell-based; details: Homo sapiens, MIA PaCa-2, MiaPaca 2, Pancreatic, 24 hrs exposure
Procedure: as §1
as §2, with “Adherent cells were trypsinised using Trypsin-EDTA (Sigma) and maintained. All cell lines were purchased from ATCC (Rockville, Md., USA).” left out
Compound of Formula (1a) [described in example 7] was dissolved in DMSO to give a required stock solution of 20 mM. […] Each concentration was evaluated in triplicate. […]

**Q.** For `CC(C)CC1CCC(O)(C(C)(O)C(=O)NC2C(=O)N3NCCCC3C(=O)N(O)C(C)C(=O)NCC(=O)N3NCCCC3C(=O)N(O)C(C)C(=O)OC2C(C)C)OC1C` (stereo not drawn) [Formula (1a), N-(6,18-dihydroxy-22-isopropyl-7,19-dimethyl-5,8,11,17,20,24-hexaoxotetracosa hydrodipyridazino[6,1-f:6′,1′-o][1,4,7,10,13,16]oxapentaazacyclononadecin-23-yl)-2-hydroxy-2-(2-hydroxy-5-isobutyl-6-methyltetrahydro-2H-pyran-2-yl)propanamide], which IC50 [1] is on record?
**A.** The IC50 was 15.1 ± 2.3 nM.

**Q.** What about the IC50 (PC3 (prostate Cancer)) of the same compound?
**A.** The IC50 was 5.2 ± 0.41 nM.

**Q.** What about the IC50 [2] of the same compound?
**A.** The IC50 was 6.1 ± 0.52 nM.

**Q.** And the “Fold activation with respect to control cells, Cleaved Caspase 9” value (shortened to “Fold activation … Cleaved Caspase 9”) ([3]; 0.0003 μM)?
**A.** The value was −0.04 fold.

**Q.** What about the “Fold activation … Cleaved Caspase 9” value ([3]; 0.003 μM) of the same compound?
**A.** The value was 0.53 fold.

**Q.** What about the “Fold activation … Cleaved Caspase 9” value ([3]; 0.01 μM) of the same compound?
**A.** The value was 2.22 fold.

**Q.** And the “effect on cleaved caspase 9 expression (in words)” value ([3]; cancer cells, conclusion)?
**A.** Its value is “up-regulates”.

**Q.** And the “Fold activation with respect to control cells, Cleaved Caspase 3” value (shortened to “Fold activation … Cleaved Caspase 3”) ([4]; 0.0003 μM)?
**A.** The value was −0.04 fold.

**Q.** What about the “Fold activation … Cleaved Caspase 3” value ([4]; 0.003 μM) of the same compound?
**A.** Its value is 0.53 fold.

**Q.** What about the “Fold activation … Cleaved Caspase 3” value ([4]; 0.01 μM) of the same compound?
**A.** The value was 1.62 fold.

**Q.** What about the “effect on cleaved caspase 3 (in words)” value ([4]; cancer cells, conclusion) of the same compound?
**A.** Its value is “prominent upregulation”.

**Q.** And the “Fold activation with respect to control cells, Cleaved PARP” value (shortened to “Fold activation … Cleaved PARP”) ([5]; 0.0003 μM)?
**A.** Its value is 0.52 fold.

**Q.** What about the “Fold activation … Cleaved PARP” value ([5]; 0.003 μM) of the same compound?
**A.** Its value is 1.09 fold.

**Q.** And the “Fold activation … Cleaved PARP” value ([5]; 0.01 μM)?
**A.** The value was 1.51 fold.

**Q.** What about the “effect on cleaved PARP (in words)” value ([5]; cancer cells, conclusion) of the same compound?
**A.** The value was “prominent upregulation”.

**Q.** What about the IC50 ([6]; Homo sapiens, MCF-10A, 24 h) of the same compound?
**A.** Its IC50 is 19 nM.

**Q.** What about the IC50 [6] of the same compound?
**A.** Its IC50 is 19.7 ± 3.1 nM.

**Q.** What about the IC50 [7] of the same compound?
**A.** The IC50 was 25.3 ± 4.6 nM.
